Results reported in PMC2896053 (Pharmaceutical research, 2009).
“Also recorded” adds a separate entry of the source. Where a name gives a salt, the structure may show the parent alone.

Legend:
[1] = system: BBB transport of 125I-ANG1005; assay: brain 125I-ANG1005 uptake with co-perfused transport inhibitors; type: in vivo, rat; conditions: P>0.05
[2] = male, Sprague Dawley, rat, in vivo
[3] = female, NuNu, mouse, in vivo, 30 min
[4] = cited from earlier work
[5] = target: low density lipoprotein receptor-related protein (LRP) (Rattus norvegicus, UniProt G3V928); assay: brain 125I-ANG1005 uptake with co-perfused unlabeled angiopep-2 or LRP ligands; type: in vivo; conditions: co-perfusion 120 s with 10 or 100 μM unlabeled angiopep-2, P<0.05
[6] = in situ rat brain perfusion, BBB transfer coefficient; conditions: P>0.05
[7] = cited from earlier work; remark: listed apart in the source
[8] = system: brain endothelial monolayer system; conditions: cited from earlier work
[9] = capillary depletion after in situ brain perfusion; type: in vivo, rat; conditions: 120 s perfusion, 30 s post wash

Sequence of low density lipoprotein receptor-related protein (LRP) (G3V928 20-3944 limits assumed): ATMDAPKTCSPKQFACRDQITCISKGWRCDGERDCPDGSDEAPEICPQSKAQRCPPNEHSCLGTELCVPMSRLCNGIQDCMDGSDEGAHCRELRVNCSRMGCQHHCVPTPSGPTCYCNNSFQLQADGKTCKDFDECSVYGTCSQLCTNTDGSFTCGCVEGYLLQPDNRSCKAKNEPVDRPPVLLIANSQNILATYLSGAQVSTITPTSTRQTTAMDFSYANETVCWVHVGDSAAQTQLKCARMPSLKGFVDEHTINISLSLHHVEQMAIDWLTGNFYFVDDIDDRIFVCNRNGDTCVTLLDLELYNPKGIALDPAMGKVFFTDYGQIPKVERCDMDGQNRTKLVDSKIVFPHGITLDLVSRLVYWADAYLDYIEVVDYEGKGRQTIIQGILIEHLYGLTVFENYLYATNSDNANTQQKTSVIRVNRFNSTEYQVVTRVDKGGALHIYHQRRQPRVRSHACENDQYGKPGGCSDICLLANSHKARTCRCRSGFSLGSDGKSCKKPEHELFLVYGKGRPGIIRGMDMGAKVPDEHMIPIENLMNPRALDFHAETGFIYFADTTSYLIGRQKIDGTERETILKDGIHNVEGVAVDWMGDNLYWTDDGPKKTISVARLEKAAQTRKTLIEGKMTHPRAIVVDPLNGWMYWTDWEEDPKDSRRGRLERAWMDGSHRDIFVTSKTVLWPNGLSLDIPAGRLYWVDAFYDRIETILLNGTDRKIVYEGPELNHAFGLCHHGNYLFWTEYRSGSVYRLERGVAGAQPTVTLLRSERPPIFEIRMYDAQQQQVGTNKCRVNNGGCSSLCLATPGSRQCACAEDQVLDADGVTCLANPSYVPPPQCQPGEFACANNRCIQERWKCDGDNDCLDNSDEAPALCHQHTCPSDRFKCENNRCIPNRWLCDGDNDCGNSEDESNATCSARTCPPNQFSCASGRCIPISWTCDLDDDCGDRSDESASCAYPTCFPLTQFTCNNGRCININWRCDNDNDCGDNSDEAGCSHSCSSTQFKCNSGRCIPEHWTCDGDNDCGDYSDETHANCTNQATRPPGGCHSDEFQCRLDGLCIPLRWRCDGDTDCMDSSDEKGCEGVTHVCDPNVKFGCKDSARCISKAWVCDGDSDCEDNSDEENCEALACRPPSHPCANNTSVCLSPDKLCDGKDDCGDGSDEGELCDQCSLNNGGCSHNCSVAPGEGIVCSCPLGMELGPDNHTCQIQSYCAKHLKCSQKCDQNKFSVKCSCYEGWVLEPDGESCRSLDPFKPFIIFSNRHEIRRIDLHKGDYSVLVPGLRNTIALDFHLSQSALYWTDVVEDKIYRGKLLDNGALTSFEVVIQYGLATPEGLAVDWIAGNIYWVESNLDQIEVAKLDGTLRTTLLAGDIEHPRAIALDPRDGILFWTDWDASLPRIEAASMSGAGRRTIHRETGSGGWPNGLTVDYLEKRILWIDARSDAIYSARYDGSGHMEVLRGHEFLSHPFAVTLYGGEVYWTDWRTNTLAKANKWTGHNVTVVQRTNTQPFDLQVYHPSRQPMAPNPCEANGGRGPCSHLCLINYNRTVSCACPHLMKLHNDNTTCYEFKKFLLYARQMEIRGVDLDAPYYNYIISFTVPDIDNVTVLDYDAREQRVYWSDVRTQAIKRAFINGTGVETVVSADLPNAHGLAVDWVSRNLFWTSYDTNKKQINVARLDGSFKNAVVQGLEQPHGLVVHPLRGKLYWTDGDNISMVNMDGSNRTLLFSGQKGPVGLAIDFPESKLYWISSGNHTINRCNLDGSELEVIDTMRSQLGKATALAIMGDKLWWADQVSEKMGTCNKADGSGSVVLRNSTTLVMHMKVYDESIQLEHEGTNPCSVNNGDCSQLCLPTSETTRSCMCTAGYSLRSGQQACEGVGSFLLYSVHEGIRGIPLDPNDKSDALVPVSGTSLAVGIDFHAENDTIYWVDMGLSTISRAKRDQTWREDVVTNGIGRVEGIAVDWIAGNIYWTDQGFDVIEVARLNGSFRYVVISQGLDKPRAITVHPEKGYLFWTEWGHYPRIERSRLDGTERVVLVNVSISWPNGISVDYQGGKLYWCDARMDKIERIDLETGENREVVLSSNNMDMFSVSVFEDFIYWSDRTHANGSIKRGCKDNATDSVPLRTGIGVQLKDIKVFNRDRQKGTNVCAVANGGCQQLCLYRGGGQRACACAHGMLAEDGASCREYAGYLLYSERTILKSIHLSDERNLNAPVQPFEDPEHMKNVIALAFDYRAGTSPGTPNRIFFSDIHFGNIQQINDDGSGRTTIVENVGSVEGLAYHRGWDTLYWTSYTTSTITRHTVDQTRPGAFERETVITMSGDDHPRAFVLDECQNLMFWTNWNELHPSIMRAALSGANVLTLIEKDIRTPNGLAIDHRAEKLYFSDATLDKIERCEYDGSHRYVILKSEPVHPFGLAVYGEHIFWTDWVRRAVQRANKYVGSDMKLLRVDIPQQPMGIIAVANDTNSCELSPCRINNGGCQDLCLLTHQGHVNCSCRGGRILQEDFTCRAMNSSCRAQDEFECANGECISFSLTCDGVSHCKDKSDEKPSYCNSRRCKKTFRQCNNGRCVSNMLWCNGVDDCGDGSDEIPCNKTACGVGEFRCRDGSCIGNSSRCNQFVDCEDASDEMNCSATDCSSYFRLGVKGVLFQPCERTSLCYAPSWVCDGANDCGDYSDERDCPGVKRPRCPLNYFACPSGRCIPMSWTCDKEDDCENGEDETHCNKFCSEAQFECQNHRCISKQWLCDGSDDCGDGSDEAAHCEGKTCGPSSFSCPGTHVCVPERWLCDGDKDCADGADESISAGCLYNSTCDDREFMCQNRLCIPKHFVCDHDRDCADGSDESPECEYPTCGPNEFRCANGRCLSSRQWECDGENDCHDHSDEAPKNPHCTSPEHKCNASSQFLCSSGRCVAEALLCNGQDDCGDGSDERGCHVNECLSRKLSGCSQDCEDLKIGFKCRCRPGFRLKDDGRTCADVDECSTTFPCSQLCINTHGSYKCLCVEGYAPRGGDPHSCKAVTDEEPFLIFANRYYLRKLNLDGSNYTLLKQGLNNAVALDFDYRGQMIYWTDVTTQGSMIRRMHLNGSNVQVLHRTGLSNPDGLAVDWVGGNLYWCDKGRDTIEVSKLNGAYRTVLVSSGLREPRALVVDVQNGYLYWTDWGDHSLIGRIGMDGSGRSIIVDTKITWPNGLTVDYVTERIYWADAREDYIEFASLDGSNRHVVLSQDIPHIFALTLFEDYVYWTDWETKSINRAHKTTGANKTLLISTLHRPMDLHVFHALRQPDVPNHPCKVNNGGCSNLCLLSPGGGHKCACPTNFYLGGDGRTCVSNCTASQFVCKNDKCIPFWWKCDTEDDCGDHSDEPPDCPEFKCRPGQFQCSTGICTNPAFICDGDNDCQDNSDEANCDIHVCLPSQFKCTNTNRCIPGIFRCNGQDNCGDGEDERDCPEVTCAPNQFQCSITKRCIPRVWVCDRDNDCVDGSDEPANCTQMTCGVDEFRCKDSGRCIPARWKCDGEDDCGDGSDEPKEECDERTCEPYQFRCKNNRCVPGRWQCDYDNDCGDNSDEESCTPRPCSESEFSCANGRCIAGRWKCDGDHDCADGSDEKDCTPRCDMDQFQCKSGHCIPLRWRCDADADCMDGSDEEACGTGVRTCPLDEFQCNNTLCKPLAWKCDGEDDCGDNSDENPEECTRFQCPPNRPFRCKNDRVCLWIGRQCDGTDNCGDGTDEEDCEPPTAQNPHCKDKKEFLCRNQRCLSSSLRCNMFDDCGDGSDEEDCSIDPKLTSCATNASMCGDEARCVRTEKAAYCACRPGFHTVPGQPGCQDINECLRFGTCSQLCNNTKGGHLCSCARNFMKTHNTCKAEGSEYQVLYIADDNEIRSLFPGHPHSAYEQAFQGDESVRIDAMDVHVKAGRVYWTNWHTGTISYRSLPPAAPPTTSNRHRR
Sequence of low density lipoprotein receptor-related protein (LRP) (G3V928 3945-4545 limits assumed): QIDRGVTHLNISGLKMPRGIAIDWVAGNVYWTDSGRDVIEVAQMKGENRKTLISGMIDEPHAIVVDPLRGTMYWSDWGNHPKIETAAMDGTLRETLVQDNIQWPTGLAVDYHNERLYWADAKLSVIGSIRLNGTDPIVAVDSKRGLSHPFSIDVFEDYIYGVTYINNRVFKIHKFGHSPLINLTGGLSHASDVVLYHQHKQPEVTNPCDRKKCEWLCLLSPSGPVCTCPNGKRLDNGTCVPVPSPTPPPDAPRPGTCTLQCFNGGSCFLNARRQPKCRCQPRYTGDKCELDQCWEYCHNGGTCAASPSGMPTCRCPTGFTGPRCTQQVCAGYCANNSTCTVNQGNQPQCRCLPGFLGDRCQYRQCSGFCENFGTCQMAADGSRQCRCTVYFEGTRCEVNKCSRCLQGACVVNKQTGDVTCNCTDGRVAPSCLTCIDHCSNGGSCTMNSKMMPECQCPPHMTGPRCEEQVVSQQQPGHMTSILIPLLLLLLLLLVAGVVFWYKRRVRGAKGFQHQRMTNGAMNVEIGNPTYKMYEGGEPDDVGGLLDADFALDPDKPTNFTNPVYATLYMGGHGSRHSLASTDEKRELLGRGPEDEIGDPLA

N[C@@H](Cc1ccccc1)C(=O)O [L-phenylalanine]
effect on Kin for brain uptake of 125I-ANG1005 ([1]; co-perfusion with L-phenylalanine 1 mM): None of the four agents produced a statistically significant decrease; also recorded: not inhibited

COc1ccc2c(c1)c(CC(=O)O)c(C)n2C(=O)c1ccc(Cl)cc1 [indomethacin]
effect on Kin for brain uptake of 125I-ANG1005 ([1]; co-perfusion with indomethacin 300 μM): None of the four agents produced a statistically significant decrease; also recorded: failed to alter

CN(C)CCCN1c2ccccc2Sc2ccc(Cl)cc21 [chlorpromazine, chlorpromazine hydrochloride]
effect on Kin for brain uptake of 125I-ANG1005 ([1]; co-perfusion with chlorpromazine 100 μM): None of the four agents produced a statistically significant decrease; also recorded: failed to alter

CC(=O)O[C@H]1C(=O)[C@@]2(C)[C@H]([C@H](OC(=O)c3ccccc3)[C@]3(O)C[C@H](OC(=O)[C@H](O)[C@@H](NC(=O)c4ccccc4)c4ccccc4)C(C)=C1C3(C)C)[C@]1(OC(C)=O)CO[C@@H]1C[C@@H]2O [paclitaxel]
BBB transfer coefficient (Kin) for brain uptake [2]: 8.5 ± 0.5 × 10^−5 mL/s/g | lowering of brain drug content by vascular correction [3]: ~ 84% | rise of brain paclitaxel concentrations on inhibition of active efflux transport [4]: 6–10 fold

OC[C@H]1O[C@@](CO)(O[C@H]2O[C@H](CO)[C@@H](O)[C@H](O)[C@H]2O)[C@@H](O)[C@@H]1O [^14C-sucrose, sucrose]
brain vascular volume Vv (brain distribution space of 14C-sucrose) [2]: 1.2 ± 0.2 × 10^−2 mL/g

angiopep-2
reduction of brain 125I-ANG1005 uptake [5]: 30–40% | brain 14C-sucrose space in the presence of the tracer (BBB permeability) [6]: not altered from control | brain uptake by in situ perfusion [7]: improved brain uptake | transcytosis across a brain endothelial monolayer system in vitro [8]: enhanced transcytosis | brain tracer in parenchymal fraction [9]: > 70% | brain tracer in vascular (capillary) pellet [9]: < 30%

poly-L-lysine
effect on Kin for brain uptake of 125I-ANG1005 ([1]; co-perfusion with poly-l-lysine 25 μM): not inhibited | effect on Kin for brain uptake of 125I-ANG1005 ([1]; co-perfusion with poly-l-lysine 25 μM, listed as poly-l-lysine): None of the four agents produced a statistically significant decrease
